Results as given in DBAASP.
≈ marks a conversion by molar mass, not a printed value. Blank lines part the entries; values can stand above or below the compound they belong to.

Tests used:
Test in all cases: ≥ marks a high value that may be exact or a test limit, other limits are often not marked, values filed in µg/mL are converted to µM
[1] = tested on: Pseudomonas aeruginosa ATCC 27853
[2] = tested on: Klebsiella pneumoniae ATCC 13883
[3] = tested on: Escherichia coli ATCC 25922
[4] = tested on: Staphylococcus aureus ATCC 25923
[5] = tested on: Listeria monocytogenes ATCC 35152
[6] = tested on: Listeria monocytogenes CMCC 54002
[7] = tested on: Streptococcus pyogenes ATCC 12344
Streptococcus mutans = tested on: Streptococcus mutans
[8] = tested on: Salmonella typhimurium CMCC 50013
[9] = tested on: Staphylococcus aureus ATCC 29213
[10] = tested on: Shigella dysenteriae CMCC 51302
Pseudomonas aeruginosa = tested on: Pseudomonas aeruginosa
Escherichia coli P4 = tested on: Escherichia coli P4
Klebsiella aerogenes = tested on: Klebsiella aerogenes
Klebsiella pneumoniae = tested on: Klebsiella pneumoniae
Serratia marcescens = tested on: Serratia marcescens
Escherichia coli = tested on: Escherichia coli
Enterobacter cloacae = tested on: Enterobacter cloacae
[11] = tested on: Staphylococcus aureus ATCC 9144
[12] = tested on: Pseudomonas aeruginosa ATCC 25668
Acinetobacter sp. = tested on: Acinetobacter sp.
[13] = tested on: Bacillus subtilis ATCC 6633
[14] = tested on: Staphylococcus aureus USA 300
[15] = tested on: Pseudomonas aeruginosa ATCC 10145
[16] = tested on: Staphylococcus aureus USA 200
[17] = tested on: Pseudomonas aeruginosa ATCC 35032
[18] = tested on: Pseudomonas aeruginosa 1109
[19] = tested on: Pseudomonas aeruginosa 1125
[20] = tested on: Staphylococcus aureus VRSA1
[21] = tested on: Staphylococcus aureus NRS 19
[22] = tested on: Staphylococcus aureus ATCC BAA-44
[23] = tested on: Pseudomonas aeruginosa 16011
[24] = tested on: Staphylococcus aureus USA 100
[25] = tested on: Pseudomonas aeruginosa ATCC 25619
[26] = tested on: Acinetobacter baumannii NR-9667
[27] = tested on: Staphylococcus epidermidis NRS 101
[28] = tested on: Pseudomonas aeruginosa ATCC 9027
[29] = tested on: Staphylococcus aureus ATCC 43300
[30] = tested on: Pseudomonas aeruginosa ATCC 15442
[31] = tested on: Acinetobacter baumannii NR-13375
[32] = tested on: Staphylococcus aureus RN4220
[33] = tested on: Pseudomonas aeruginosa ATCC 9721
[34] = tested on: Staphylococcus aureus ATCC 6538
[35] = tested on: Staphylococcus aureus NRS 72
[36] = tested on: Staphylococcus aureus NRS 1
[37] = tested on: Pseudomonas aeruginosa ATCC BAA-1744
[38] = tested on: Pseudomonas aeruginosa 1017
[39] = tested on: Acinetobacter baumannii ATCC BAA-1605
[40] = tested on: Acinetobacter baumannii ATCC BAA-747
[41] = tested on: Acinetobacter baumannii ATCC 19606

Compound: CC(C)C[C@H](NC(=O)CN)C(=O)N[C@@H](Cc1ccccc1)C(=O)N[C@@H](CCCN=C(N)N)C(=O)N[C@@H](C)C(=O)N[C@@H](CC(C)C)C(=O)N[C@@H](CC(C)C)C(=O)N[C@@H](CCCN=C(N)N)C(=O)N[C@@H](CC(C)C)C(=O)N[C@@H](CC(C)C)C(=O)N[C@@H](CCCN=C(N)N)C(=O)N[C@@H](CO)C(=O)N[C@@H](CC(C)C)C(=O)N[C@@H](Cc1c[nH]c2ccccc12)C(=O)N[C@@H](CCCN=C(N)N)C(=O)N[C@@H](CC(C)C)C(=O)N[C@@H](CC(C)C)C(=O)N[C@@H](CC(C)C)C(=O)N[C@@H](CCCN=C(N)N)C(=O)N[C@@H](C)C(=O)O [GLFRALLRLLRSLWRLLLRA]
MIC [6]: ≥ 64 µM | MIC [7]: ≥ 64 µM | MIC (Streptococcus mutans): ≥ 64 µM | MIC [3]: > 64 µM | MIC [8]: ≥ 64 µM | MIC [9]: > 64 µM | MIC [10]: ≥ 64 µM

Compound: CC[C@H](C)[C@H](NC(=O)[C@H](Cc1cnc[nH]1)NC(=O)[C@@H](NC(=O)[C@H](CCCN=C(N)N)NC(=O)[C@@H](N)C(C)C)[C@@H](C)CC)C(=O)N[C@@H](CO)C(=O)NCC(=O)N[C@@H](CO)C(=O)N[C@@H](CO)C(=O)N[C@@H](CC(C)C)C(=O)NCC(=O)N[C@@H](Cc1c[nH]c2ccccc12)C(=O)N[C@@H](CC(C)C)C(=O)N[C@H](C(=O)N[C@@H](CCC(N)=O)C(=O)N[C@@H](CC(C)C)C(=O)N[C@@H](Cc1ccccc1)C(=O)N[C@@H](CCCN=C(N)N)C(=O)N[C@@H](CCCCN)C(=O)N[C@@H](CCCN=C(N)N)C(=O)N[C@H](C(=O)N[C@@H](CCC(=O)O)C(=O)N[C@@H](CO)C(=O)N[C@@H](CC(C)C)C(=O)N[C@@H](CC(C)C)C(=O)N[C@@H](CCC(N)=O)C(=O)N[C@@H](CCCCN)C(=O)N[C@@H](CO)C(=O)O)[C@@H](C)CC)[C@@H](C)CC [VRIHISGSSLGWLIQLFRKRIESLLQKS]
MIC (Pseudomonas aeruginosa): > 78.4 µM | MIC (Escherichia coli P4): ≥ 55.4 µM | MIC (Klebsiella aerogenes): ≥ 78.4 µM | MIC (Klebsiella pneumoniae): > 78.4 µM | MIC (Serratia marcescens): ≥ 157 µM | MIC (Escherichia coli): 78.4 µM (≈ 256 µg/mL) | MIC [3]: 55.4 µM (≈ 181 µg/mL) | MIC (Enterobacter cloacae): ≥ 78.4 µM | MIC [9]: 55.4 µM (≈ 181 µg/mL)

Compound: CC[C@H](C)[C@H](N)C(=O)N[C@@H](CCCCN)C(=O)N1CCC[C@H]1C(=O)N[C@@H](C)C(=O)NCC(=O)N[C@@H](CCCCN)C(=O)N[C@@H](CC(C)C)C(=O)N[C@@H](Cc1ccccc1)C(=O)N[C@@H](CCCCN)C(=O)N[C@@H](CC(C)C)C(=O)N[C@@H](Cc1ccccc1)C(=O)N[C@@H](CCCCN)C(N)=O [IKPAGKLFKLFK]
MIC [11]: ≥ 368 µM | MIC [12]: ≥ 368 µM | MIC (Escherichia coli): 368 µM (≈ 512 µg/mL) | MIC (Acinetobacter sp.): ≥ 46.1 µM | MIC [13]: ≥ 368 µM

More lines, now with the values ahead:

MIC [1]: 14.4 µM (≈ 20 µg/mL) | MIC [2]: 18 µM (≈ 25 µg/mL) | MIC [3]: 10.8 µM (≈ 15 µg/mL) | MIC [4]: 7.22 µM (≈ 9.99 µg/mL) | MIC [5]: 10.8 µM (≈ 15 µg/mL)
Compound: CC(C)C[C@H](NC(=O)[C@H](CCCN=C(N)N)NC(=O)[C@H](CCCCN)NC(=O)[C@@H](N)Cc1c[nH]c2ccccc12)C(=O)N[C@H](C(=O)N[C@@H](C)C(=O)N[C@@H](C)C(=O)N[C@@H](CO)C(=O)N[C@@H](C)C(=O)N[C@@H](CCCCN)C(=O)N[C@@H](CCCCN)C(=O)N[C@@H](CCCCN)C(N)=O)C(C)C [WKRLVAASAKKK]

MIC [14]: 4 µM (≈ 7.47 µg/mL) | MIC [15]: 8 µM (≈ 14.9 µg/mL) | MIC [16]: 4 µM (≈ 7.47 µg/mL) | MIC [17]: 8 µM (≈ 14.9 µg/mL) | MIC [18]: 4 µM (≈ 7.47 µg/mL) | MIC [19]: 8 µM (≈ 14.9 µg/mL) | MIC [20]: 4 µM (≈ 7.47 µg/mL) | MIC [21]: 4 µM (≈ 7.47 µg/mL) | MIC [22]: 4 µM (≈ 7.47 µg/mL) | MIC [1]: 8 µM (≈ 14.9 µg/mL) | MIC [23]: 16 µM (≈ 29.9 µg/mL) | MIC [24]: 2 µM (≈ 3.73 µg/mL) | MIC [25]: 8 µM (≈ 14.9 µg/mL) | MIC [26]: 4 µM (≈ 7.47 µg/mL) | MIC [27]: 2 µM (≈ 3.73 µg/mL) | MIC [28]: 4 µM (≈ 7.47 µg/mL) | MIC [29]: 4 µM (≈ 7.47 µg/mL) | MIC [30]: 8 µM (≈ 14.9 µg/mL) | MIC [31]: 2 µM (≈ 3.73 µg/mL) | MIC [32]: 4 µM (≈ 7.47 µg/mL) | MIC [33]: 8 µM (≈ 14.9 µg/mL) | MIC [34]: 2 µM (≈ 3.73 µg/mL) | MIC [35]: 4 µM (≈ 7.47 µg/mL) | MIC [36]: 2 µM (≈ 3.73 µg/mL) | MIC [37]: 8 µM (≈ 14.9 µg/mL) | MIC [38]: ≥ 32 µM | MIC [39]: 2 µM (≈ 3.73 µg/mL) | MIC [40]: 2 µM (≈ 3.73 µg/mL) | MIC [41]: 2 µM (≈ 3.73 µg/mL)
Compound: CC[C@H](C)[C@H](NC(=O)[C@H](CCCN=C(N)N)NC(=O)[C@H](CCCN=C(N)N)NC(=O)[C@H](CC(C)C)NC(=O)[C@H](Cc1c[nH]c2ccccc12)NC(=O)[C@H](C)NC(=O)[C@H](CCCCN)NC(=O)[C@@H](NC(=O)[C@H](CCCN=C(N)N)NC(=O)[C@H](CCCN=C(N)N)NC(=O)[C@H](CC(C)C)NC(=O)[C@@H](N)Cc1c[nH]c2ccccc12)[C@@H](C)CC)C(=O)N[C@@H](CCCCN)C(=O)N[C@@H](C)C(=O)O [WLRRIKAWLRRIKA]
